Test results taken from ChEMBL document CHEMBL1201862, “PubChem BioAssay data set” (2004).
Calls of active or inactive are those of the source.

Experiments:
[1] = ADAM10 protease inhibitors, dose response, selectivity assay for ADAM17 exosite inhibitor project, biochemical, FRET peptide substrate, recombinant human ADAM10 (AID 743259);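 further: ADAM10 enzyme cleaving a FRET peptide substrate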
[2] = molecular target: CAAX prenyl protease 2 (Homo sapiens, UniProt Q9Y256); assay: human Rce1 protease inhibitors, dose response, biochemical, yeast membranes, quenched-peptide fluorescence, cherry-pick (AID 588849)
CAAX prenyl protease 2 (Homo sapiens, UniProt Q9Y256), sequence (Q9Y256 whole entry, the tested form may be a part): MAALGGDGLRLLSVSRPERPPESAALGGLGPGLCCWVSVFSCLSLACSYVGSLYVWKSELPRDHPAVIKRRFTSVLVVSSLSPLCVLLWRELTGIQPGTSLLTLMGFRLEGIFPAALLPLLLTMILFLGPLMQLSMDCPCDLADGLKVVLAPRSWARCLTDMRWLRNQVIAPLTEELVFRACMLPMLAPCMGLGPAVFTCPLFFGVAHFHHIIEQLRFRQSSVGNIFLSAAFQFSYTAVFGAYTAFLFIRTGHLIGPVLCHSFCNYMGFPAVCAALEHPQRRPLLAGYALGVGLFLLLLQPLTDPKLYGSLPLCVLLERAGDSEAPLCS

[3] = molecular target: Disintegrin and metalloproteinase domain-containing protein 17 (Homo sapiens, UniProt P78536); assay: exosite inhibitors of ADAM17, dose response, biochemical (AID 743260)
Disintegrin and metalloproteinase domain-containing protein 17, sequence (P78536 whole entry, the tested form may be a part): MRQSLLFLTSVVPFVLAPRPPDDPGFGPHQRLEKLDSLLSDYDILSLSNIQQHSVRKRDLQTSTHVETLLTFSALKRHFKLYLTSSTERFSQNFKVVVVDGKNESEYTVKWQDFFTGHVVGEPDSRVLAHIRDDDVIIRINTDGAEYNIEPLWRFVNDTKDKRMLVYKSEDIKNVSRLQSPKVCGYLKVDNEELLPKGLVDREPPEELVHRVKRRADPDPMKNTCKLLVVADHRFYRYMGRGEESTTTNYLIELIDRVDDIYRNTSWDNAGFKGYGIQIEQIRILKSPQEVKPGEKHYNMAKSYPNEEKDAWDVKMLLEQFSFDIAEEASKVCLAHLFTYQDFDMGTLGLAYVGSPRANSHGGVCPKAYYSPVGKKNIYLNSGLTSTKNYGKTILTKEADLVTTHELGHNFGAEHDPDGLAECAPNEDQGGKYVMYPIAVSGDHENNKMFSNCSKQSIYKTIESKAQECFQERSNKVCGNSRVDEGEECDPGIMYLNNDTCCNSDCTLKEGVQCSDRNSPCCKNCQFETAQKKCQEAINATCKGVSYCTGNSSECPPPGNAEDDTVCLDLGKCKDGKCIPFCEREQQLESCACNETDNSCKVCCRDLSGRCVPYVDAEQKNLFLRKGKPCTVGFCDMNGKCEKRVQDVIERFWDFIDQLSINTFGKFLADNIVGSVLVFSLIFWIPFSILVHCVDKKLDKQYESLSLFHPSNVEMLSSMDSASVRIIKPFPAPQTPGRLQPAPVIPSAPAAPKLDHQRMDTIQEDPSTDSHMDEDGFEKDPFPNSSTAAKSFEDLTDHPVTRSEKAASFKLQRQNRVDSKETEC

[4] = tested on: HEK293; assay: cells; details: Homo sapiens
[5] = tested on: HEK293; assay: cells; details: Homo sapiens; remark: listed apart in the source
[6] = molecular target: T1, Replicative DNA helicase DnaB (Mycobacterium tuberculosis, UniProt P9WMR3); assay: DnaB intein splicing inhibitors, dose response, biochemical, cell-free fluorescence (AID 449749); format: functional
T1 sequence (P9WMR3 whole entry): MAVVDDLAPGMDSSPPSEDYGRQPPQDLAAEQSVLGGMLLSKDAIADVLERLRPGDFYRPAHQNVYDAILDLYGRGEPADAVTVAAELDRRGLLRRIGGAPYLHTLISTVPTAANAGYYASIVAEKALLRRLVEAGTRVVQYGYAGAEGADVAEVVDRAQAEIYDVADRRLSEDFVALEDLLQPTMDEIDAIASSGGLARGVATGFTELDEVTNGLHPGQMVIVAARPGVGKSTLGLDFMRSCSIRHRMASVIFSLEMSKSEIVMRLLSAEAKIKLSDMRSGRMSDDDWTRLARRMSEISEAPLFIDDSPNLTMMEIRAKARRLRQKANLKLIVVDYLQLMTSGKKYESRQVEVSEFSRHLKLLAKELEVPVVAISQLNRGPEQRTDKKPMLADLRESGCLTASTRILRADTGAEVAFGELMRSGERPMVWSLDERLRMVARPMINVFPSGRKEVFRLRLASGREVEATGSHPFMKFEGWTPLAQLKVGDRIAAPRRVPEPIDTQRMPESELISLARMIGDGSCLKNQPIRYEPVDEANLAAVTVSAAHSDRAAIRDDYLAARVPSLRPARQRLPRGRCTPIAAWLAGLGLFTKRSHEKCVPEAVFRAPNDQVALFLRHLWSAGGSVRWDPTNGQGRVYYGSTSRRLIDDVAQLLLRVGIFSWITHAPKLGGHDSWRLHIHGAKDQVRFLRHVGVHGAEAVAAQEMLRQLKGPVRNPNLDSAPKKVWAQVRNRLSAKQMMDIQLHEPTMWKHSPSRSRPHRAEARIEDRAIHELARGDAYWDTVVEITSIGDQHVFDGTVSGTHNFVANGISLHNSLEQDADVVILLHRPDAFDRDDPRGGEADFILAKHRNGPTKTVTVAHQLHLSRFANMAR

[7] = molecular target: Induced myeloid leukemia cell differentiation protein Mcl-1 (Homo sapiens, UniProt Q07820); format: functional
Induced myeloid leukemia cell differentiation protein Mcl-1, sequence (Q07820 whole entry): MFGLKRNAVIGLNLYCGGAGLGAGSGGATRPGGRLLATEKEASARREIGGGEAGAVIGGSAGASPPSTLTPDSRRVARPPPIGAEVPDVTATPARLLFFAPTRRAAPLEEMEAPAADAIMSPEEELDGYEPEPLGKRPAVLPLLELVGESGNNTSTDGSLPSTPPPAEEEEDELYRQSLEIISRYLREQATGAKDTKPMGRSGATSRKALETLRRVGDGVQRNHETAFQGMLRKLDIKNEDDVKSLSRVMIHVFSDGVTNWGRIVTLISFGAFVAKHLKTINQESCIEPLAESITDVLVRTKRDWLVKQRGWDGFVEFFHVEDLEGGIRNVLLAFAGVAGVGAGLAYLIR

[8] = molecular target: Paired box protein Pax-8 (Homo sapiens, UniProt Q06710); assay: inhibitors of PAX8-driven TPO luciferase reporter, dose response, RMG-I cells, cherry-pick (AID 687027); format: functional, cell-based;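 further: luciferase reporter driven by Pax8 target thyroperoxidase promoter measured by SteadyGlo luminescence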
Paired box protein Pax-8, sequence (Q06710 whole entry): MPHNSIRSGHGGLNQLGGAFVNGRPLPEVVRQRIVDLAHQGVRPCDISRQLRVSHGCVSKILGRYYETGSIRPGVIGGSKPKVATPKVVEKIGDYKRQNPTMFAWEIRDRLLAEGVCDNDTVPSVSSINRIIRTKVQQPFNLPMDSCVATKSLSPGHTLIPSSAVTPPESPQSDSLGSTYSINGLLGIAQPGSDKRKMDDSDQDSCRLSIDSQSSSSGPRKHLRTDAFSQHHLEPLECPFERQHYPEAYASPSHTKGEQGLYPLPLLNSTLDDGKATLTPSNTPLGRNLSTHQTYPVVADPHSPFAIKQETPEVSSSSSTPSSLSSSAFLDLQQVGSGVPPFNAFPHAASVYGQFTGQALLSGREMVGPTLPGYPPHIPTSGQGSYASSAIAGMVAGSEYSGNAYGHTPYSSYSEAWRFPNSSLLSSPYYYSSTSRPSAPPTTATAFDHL

[9] = molecular target: T2, Protein RecA (Mycobacterium tuberculosis, UniProt P9WHJ3); assay: Fluorescence Cell-Free Homogeneous Dose Retest to Identify Inhibitors of RecA-Intein Splicing Activity. [Related pubchem assays (depositor defined):AID2097, AID2223, AID489010, AID492950]; format: functional
T2 sequence (P9WHJ3 whole entry): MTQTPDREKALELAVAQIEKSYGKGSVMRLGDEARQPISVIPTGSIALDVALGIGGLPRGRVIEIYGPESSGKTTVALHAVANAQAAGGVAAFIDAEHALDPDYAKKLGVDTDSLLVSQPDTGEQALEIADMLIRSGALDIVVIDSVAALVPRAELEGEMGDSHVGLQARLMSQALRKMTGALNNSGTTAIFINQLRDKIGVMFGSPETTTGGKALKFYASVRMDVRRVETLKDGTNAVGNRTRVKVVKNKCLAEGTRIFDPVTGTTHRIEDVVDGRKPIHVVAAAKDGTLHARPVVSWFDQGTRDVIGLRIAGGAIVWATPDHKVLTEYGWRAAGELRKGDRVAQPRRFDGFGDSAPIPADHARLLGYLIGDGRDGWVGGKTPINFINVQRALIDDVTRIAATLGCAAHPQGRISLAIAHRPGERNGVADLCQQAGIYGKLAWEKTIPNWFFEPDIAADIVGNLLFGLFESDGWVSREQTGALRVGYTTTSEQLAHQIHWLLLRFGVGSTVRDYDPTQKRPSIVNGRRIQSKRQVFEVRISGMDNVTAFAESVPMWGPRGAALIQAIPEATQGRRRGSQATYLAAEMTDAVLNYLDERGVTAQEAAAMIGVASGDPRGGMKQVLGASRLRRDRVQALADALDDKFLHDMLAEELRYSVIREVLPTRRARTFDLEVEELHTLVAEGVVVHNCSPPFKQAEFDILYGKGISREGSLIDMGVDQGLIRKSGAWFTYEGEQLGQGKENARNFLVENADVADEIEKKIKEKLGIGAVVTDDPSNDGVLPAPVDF

[10] = tested on: Streptococcus; assay: Group A Streptococcus viability loss, dose response, counter-screen for streptokinase expression inhibitor project, luminescence, BacTiterGlo (AID 1915); format: functional, organism-based;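 further: potency for reduction of bacterial viability or growth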
[11] = molecular target: Beta-galactosidase (Escherichia coli, UniProt Q8VNN2); assay: beta-galactosidase enzyme inhibitors and activators, dose response, artefact control for CCR6 antagonist project, biochemical, E. coli enzyme, set 3 (AID 504712); format: functional
Beta-galactosidase, sequence (Q8VNN2 whole entry): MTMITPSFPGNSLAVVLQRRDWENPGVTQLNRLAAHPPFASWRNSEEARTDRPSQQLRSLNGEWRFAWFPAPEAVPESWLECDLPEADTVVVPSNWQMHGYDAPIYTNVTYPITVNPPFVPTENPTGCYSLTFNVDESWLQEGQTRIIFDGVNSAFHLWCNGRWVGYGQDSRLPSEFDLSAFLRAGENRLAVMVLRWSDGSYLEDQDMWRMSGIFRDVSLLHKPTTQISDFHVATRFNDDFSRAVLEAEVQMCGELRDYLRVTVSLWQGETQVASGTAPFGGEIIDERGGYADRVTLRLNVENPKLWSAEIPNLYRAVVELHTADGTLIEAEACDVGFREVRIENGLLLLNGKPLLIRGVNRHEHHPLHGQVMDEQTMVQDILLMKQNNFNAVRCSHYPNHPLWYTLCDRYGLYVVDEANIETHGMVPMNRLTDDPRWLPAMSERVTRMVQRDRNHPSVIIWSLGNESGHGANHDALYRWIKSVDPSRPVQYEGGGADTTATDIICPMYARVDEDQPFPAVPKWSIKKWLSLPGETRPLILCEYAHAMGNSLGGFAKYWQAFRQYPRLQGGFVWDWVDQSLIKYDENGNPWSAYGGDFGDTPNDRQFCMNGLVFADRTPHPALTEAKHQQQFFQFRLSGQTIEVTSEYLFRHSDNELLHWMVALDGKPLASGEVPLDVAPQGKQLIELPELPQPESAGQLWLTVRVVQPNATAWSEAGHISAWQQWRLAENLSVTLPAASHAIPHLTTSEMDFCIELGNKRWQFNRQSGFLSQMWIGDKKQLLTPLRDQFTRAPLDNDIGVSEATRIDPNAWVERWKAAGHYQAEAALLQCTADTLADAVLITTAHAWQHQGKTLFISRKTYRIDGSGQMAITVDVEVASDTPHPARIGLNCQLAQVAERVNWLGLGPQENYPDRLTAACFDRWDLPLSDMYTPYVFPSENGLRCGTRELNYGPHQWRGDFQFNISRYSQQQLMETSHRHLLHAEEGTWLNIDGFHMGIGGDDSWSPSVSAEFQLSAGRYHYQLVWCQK

[12] = tested on: Streptococcus sp. 'group A'; assay: growth inhibition of control SK(-) GAS strain, dose response, counter-screen for streptokinase expression inhibitor project, luminescence, kanamycin, BacTiterGlo, confirmation (AID 1900); format: functional, organism-based
[13] = molecular target: T3, Short transient receptor potential channel 4 (Mus musculus, UniProt Q9QUQ5); assay: mouse TRPC4 channel activators, dose response, cell-based, HEK293 TRPC4/mu-opioid, Fluo-4 calcium (AID 434937); format: functional
T3 sequence (Q9QUQ5 whole entry): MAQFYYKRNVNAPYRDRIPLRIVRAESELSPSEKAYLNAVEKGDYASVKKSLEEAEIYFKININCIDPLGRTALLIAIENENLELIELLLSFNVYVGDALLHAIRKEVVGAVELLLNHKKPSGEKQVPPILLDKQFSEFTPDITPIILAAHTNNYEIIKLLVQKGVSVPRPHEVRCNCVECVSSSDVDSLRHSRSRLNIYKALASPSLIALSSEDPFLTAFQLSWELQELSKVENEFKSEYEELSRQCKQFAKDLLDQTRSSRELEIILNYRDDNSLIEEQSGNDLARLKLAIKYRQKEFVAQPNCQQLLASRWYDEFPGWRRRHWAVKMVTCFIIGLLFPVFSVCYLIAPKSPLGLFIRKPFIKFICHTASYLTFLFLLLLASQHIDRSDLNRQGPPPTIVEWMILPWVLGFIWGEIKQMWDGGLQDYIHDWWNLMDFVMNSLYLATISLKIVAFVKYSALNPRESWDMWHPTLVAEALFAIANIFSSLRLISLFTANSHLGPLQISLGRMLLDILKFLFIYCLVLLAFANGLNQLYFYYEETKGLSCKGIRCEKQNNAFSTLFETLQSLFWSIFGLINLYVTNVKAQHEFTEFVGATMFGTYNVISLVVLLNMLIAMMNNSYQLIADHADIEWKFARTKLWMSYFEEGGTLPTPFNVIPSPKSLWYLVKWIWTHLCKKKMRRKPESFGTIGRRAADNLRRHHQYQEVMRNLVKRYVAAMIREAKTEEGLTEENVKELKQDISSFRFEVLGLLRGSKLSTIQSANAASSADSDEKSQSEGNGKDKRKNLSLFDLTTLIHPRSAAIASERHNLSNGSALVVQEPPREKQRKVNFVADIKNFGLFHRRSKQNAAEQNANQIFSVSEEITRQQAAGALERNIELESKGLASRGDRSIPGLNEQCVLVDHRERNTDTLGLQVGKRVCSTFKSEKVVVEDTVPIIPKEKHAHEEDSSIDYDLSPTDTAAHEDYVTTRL

[14] = molecular target: Apelin receptor (Homo sapiens, UniProt P35414); assay: APJ beta-arrestin recruitment antagonism, SAR follow-up, selectivity assay for CCR6 antagonist project, cell-based, luminescent, enzyme-fragment complementation (AID 588359); format: functional
Apelin receptor, sequence (P35414 whole entry, the tested form may be a part): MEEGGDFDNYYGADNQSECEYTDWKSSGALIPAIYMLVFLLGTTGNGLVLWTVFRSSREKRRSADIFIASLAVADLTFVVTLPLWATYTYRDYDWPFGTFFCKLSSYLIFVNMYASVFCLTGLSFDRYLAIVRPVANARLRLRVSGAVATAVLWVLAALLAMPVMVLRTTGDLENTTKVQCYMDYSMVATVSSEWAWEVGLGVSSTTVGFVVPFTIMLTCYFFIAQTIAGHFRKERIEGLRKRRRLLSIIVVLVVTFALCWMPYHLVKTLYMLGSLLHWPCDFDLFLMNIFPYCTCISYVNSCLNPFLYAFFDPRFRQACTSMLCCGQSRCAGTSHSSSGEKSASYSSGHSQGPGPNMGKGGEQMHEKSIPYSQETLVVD

[15] = molecular target: Dual specificity tyrosine-phosphorylation-regulated kinase 1A (Rattus norvegicus, UniProt Q63470); format: biochemical, Homo sapiens
[16] = molecular target: T4, Interleukin-8 (Homo sapiens, UniProt P10145); assay: Dose Response confirmation of uHTS small molecule hits for cystic fibrosis induced NFkb Inhibitors in a PAF-induced IL8 counterscreen.; format: functional; details: read-out: IC50_Mean
T4 sequence (P10145 whole entry): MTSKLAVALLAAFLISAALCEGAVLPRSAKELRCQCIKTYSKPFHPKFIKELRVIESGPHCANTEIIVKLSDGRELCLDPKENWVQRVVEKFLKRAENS

[17] = molecular target: Dual specificity protein kinase CLK1 (Homo sapiens, UniProt P49759); assay: CLK1 kinase inhibitors, off-target check, dose response, selectivity assay for Dyrk1A inhibitor project, biochemical, cherry-picked samples (AID 588811)
Dual specificity protein kinase CLK1, sequence (P49759 whole entry): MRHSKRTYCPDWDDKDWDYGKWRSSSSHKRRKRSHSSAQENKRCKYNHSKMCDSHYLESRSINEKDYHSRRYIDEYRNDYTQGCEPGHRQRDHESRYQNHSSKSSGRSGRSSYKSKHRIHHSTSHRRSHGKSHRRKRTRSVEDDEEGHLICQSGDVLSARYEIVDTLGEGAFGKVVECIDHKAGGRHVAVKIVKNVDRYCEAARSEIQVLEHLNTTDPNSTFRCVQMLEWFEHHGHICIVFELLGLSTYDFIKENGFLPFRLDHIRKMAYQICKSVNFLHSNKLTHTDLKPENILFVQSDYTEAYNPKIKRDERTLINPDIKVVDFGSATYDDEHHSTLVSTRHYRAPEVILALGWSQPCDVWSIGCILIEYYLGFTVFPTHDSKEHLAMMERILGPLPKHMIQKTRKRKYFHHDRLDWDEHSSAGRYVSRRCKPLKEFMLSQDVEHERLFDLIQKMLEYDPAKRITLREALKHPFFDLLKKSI

[18] = molecular target: T5, CAAX prenyl protease 2 (Saccharomyces cerevisiae S288c, UniProt Q03530); format: biochemical
T5 sequence (Q03530 whole entry): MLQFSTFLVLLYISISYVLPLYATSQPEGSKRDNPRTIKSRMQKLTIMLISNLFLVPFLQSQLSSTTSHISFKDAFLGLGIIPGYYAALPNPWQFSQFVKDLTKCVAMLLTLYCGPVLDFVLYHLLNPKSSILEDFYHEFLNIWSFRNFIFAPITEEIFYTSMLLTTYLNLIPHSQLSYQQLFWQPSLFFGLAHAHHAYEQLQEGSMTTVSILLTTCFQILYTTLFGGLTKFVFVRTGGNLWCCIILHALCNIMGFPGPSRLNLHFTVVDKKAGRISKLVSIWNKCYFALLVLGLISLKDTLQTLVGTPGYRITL

O=C(Nc1cccc2ccccc12)c1ccc(OC(=S)N2CCOCC2)cc1
IC50 [1]: > 69.5 µM (inactive)
AC50 [2]: > 100 µM (inactive)
IC50 [3]: > 69.5 µM (inactive)

CCCCC(=O)NC(=S)Nc1cccc(Cl)c1N1CCCCC1
EC50 [4]: > 59.7 µM (inactive)
EC50 [5]: > 59.7 µM (inactive)

CCN(CC)S(=O)(=O)c1cc(NC(=O)Cn2ncc(Cl)c(Cl)c2=O)ccc1C
EC50 [4]: > 59.6 µM (inactive)
EC50 [5]: > 59.6 µM (inactive)
AC50 [6]: 11.8 µM (active)
IC50 [7]: 4.21 µM (active)
AC50 [8]: 4.84 µM (active)
EC50 [9]: 14.5 µM (active)

COC(=O)C1=NN(C(=O)c2cccc(Br)c2)C(O)(c2ccc(Cl)cc2)C1 (stereo not given)
EC50 [10]: 3.87 µM (active)
IC50 [11]: > 66.6 µM (inactive)
AC50 [6]: > 380 µM (inactive)
EC50 [12]: 2.9 µM (active)
EC50 [13]: 5.31 µM (active)
IC50 [14]: 12.1 µM (active)
EC50 [9]: 13.7 µM (active)

CC1Cc2ccccc2N1c1ncnc2nc[nH]c12 (stereo not given)
AC50 [15]: 0.811 µM (active)
IC50 [16]: 10.5 µM (inactive)
AC50 [17]: 0.19 µM (active)

COc1cccc(Nc2ncnc3ccccc23)c1
AC50 [15]: 4.91 µM (active)
AC50 [17]: 3.94 µM (active)

CCOc1ccc2nc(O)c(CN(CCN3CCOCC3)Cc3nnnn3C(C)(C)CC)cc2c1
AC50 [18]: > 100 µM (inactive)
AC50 [2]: 7.54 µM (active)
